# Measurements from patent US20250163054A1, “SUBSTITUTED BICYCLIC HETEROARYL COMPOUNDS USEFUL AS INHIBITORS OF TLR9” (Bristol-Myers Squibb Company, priority 2022, published 2025).
# Assays:
# Assay type in all cases: cell-based
# human TLR9 = target: T1, human TLR9 (Homo sapiens, UniProt Q9NR96); assay: TLR7/8/9 Inhibition Reporter Assays (TLR9); conditions: HEK-Blue cells overexpressing human TLR9, SEAP reporter, stimulated with TLR9 ligand ODN2006
# T1 construct: host or cells: HEK-Blue cells (HEK293-derived reporter line)
# T1 sequence (Q9NR96 26-1032): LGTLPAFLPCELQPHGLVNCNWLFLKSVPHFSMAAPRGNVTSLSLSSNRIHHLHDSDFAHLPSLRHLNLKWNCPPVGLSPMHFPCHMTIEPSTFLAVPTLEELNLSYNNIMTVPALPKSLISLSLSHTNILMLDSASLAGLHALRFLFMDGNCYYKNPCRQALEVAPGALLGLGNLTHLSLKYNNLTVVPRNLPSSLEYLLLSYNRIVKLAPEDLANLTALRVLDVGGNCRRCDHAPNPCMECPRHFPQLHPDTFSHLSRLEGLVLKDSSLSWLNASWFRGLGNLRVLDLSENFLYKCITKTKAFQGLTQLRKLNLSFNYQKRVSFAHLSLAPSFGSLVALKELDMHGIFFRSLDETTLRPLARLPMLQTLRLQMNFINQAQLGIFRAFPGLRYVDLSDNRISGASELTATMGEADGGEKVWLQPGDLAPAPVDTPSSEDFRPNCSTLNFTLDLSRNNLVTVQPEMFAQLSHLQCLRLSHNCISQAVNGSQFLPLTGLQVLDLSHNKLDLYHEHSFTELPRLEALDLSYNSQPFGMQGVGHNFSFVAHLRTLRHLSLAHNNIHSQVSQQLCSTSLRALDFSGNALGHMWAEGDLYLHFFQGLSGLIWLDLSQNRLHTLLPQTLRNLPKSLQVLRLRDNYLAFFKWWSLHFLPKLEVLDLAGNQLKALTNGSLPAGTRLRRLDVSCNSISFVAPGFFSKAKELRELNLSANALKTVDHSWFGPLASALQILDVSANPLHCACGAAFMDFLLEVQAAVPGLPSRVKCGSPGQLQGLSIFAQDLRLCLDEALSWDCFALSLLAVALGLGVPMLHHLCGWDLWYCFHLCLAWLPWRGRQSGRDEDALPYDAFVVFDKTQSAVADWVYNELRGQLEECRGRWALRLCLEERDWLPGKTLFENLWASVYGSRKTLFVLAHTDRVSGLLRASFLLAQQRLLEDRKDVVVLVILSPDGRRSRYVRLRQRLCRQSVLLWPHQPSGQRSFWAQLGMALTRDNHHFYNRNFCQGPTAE
# Summary of the method: (§1)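 HEK-Blue cells overexpressing human TLR7, TLR8 or TLR9 with NF-κB/AP-1-driven SEAP reporter, pre-treated 60 min with compound ([…]). Stimulated with […] (TLR7), […] (TLR8) or ODN2006 200 nM (TLR9), then 22 h at 37° C; SEAP measured, % inhibition relative to agonist-plus-DMSO and known-inhibitor wells.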
# human TLR8 = target: T2, human TLR8 (Homo sapiens, UniProt Q9NR97); assay: TLR7/8/9 Inhibition Reporter Assays (TLR8); conditions: HEK-Blue cells overexpressing human TLR8, SEAP reporter, stimulated with TLR8 ligand R848
# T2 construct: host or cells: HEK-Blue cells (HEK293-derived reporter line)
# T2 sequence (Q9NR97 27-1041): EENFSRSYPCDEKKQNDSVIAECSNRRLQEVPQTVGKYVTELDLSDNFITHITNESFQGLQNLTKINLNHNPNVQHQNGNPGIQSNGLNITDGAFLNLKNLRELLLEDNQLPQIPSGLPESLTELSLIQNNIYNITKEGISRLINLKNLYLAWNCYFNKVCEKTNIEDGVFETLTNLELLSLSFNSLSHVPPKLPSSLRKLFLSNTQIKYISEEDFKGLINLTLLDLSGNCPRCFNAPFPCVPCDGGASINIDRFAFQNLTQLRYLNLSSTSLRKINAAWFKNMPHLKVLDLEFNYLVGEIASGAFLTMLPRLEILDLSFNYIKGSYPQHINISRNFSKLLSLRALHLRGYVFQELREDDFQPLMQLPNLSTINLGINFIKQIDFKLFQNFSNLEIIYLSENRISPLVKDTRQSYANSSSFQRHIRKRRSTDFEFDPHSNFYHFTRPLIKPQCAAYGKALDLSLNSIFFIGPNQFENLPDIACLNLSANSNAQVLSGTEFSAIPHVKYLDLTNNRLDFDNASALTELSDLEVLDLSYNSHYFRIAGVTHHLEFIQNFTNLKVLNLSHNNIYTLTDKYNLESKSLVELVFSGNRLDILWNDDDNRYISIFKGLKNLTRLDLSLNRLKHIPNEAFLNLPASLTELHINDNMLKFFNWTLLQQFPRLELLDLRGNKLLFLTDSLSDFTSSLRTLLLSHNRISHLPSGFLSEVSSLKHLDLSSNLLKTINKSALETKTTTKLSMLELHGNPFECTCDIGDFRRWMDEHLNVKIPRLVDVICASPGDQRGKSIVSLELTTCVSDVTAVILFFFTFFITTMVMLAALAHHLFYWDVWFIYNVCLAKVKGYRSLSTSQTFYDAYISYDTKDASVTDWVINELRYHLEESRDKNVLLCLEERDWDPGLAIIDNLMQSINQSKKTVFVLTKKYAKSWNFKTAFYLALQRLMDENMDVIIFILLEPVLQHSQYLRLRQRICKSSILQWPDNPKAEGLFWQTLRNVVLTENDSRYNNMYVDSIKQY
# Summary of the method: as §1
# human TLR7 = target: T3, human TLR7 (Homo sapiens, UniProt Q9NYK1); assay: TLR7/8/9 Inhibition Reporter Assays (TLR7); conditions: HEK-Blue cells overexpressing human TLR7, SEAP reporter, stimulated with TLR7 ligand gardiquimod
# T3 construct: host or cells: HEK-Blue cells (HEK293-derived reporter line)
# T3 sequence (Q9NYK1 27-1049): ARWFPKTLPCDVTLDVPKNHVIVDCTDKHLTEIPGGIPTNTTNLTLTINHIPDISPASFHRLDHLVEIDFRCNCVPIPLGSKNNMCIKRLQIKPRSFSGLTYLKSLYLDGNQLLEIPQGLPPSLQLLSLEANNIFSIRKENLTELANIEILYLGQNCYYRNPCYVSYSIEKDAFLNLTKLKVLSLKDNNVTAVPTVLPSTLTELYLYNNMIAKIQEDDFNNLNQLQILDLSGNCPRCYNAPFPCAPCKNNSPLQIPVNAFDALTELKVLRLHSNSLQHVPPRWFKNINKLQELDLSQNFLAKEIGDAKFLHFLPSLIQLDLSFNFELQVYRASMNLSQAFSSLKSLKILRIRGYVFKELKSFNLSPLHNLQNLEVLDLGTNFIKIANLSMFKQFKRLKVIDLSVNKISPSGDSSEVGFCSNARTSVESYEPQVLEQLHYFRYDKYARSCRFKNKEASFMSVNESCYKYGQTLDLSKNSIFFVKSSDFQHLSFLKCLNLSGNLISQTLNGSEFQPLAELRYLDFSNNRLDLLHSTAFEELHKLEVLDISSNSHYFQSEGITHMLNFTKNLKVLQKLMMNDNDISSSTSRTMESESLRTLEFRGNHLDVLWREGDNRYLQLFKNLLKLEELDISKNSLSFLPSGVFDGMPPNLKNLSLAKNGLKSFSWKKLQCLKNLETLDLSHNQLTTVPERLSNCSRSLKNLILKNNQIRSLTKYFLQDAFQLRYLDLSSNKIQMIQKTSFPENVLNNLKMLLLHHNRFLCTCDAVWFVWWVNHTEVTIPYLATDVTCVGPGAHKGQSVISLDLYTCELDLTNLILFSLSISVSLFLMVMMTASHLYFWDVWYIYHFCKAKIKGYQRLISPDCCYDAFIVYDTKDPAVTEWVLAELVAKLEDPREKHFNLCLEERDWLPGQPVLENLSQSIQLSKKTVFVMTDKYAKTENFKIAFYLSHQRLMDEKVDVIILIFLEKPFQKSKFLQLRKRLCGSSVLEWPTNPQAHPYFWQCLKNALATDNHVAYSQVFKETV
# Summary of the method: as §1
IC50 (human TLR9) [nM],IC50 (human TLR8) [nM],IC50 (human TLR7) [nM],SMILES
310,> 25000,11000,"Cc1nc(-c2ccc(C3CCN(C4CCOCC4)CC3)cc2)cc2c1nc(-c1ccc(S(C)(=O)=O)cc1)n2C [Example 28, 1,4-dimethyl-2-(4-(methylsulfonyl)phenyl)-6-(4-(1-(tetrahydro-2H-pyran-4-yl)piperidin-4-yl)phenyl)-1H-imidazo[4,5-c]pyridine]"
32,3100,2000,"Cc1nc(-c2ccc(N3C[C@H]4CN(CC(C)C)C[C@H]4C3)cc2)cc2c1nc(-c1ccc(S(C)(=O)=O)cc1)n2C [Example 68, 6-(4-((3aR,6aS)-5-isobutylhexahydropyrrolo[3,4-c]pyrrol-2(1H)-yl)phenyl)-1,4-dimethyl-2-(4-(methylsulfonyl)phenyl)-1H-imidazo[4,5-c]pyridine]"
740,> 25000,29000,"Cn1c(-c2ccc(S(C)(=O)=O)cc2)nc2cnc(-c3ccc(N4CCC5(CC4)CN(C4COC4)C5)cc3)cc21 [Example 108, 1-methyl-2-(4-(methylsulfonyl)phenyl)-6-(4-(2-(oxetan-3-yl)-2,7-diazaspiro[3.5]nonan-7-yl)phenyl)-1H-imidazo[4,5-c]pyridine]"
130,6300,7800,"Cc1nc(-c2ccc(N3CC4(C3)CN(C(C)C)C4)cc2)cc2c1nc(-c1ccc(S(C)(=O)=O)cc1)n2C [Example 78, 6-(4-(6-isopropyl-2,6-diazaspiro[3.3]heptan-2-yl)phenyl)-1,4-dimethyl-2-(4-(methylsulfonyl)phenyl)-1H-imidazo[4,5-c]pyridine]"
240,> 25000,4800,"CC(C)CN1CCC(N2CCC(c3cc4c(cn3)nc(-c3ccc(S(C)(=O)=O)cc3)n4C)CC2)CC1 [Example 31, 6-(1′-isobutyl-[1,4′-bipiperidin]-4-yl)-1-methyl-2-(4-(methylsulfonyl)phenyl)-1H-imidazo[4,5-c]pyridine]"
38,3700,1100,"Cc1nc(-c2ccc(N3CCC4(CC3)CN(C3CCC3)C4)cc2)cc2c1nc(-c1ccc(S(C)(=O)=O)cc1)n2C [Example 74, 6-(4-(2-cyclobutyl-2,7-diazaspiro[3.5]nonan-7-yl)phenyl)-1,4-dimethyl-2-(4-(methylsulfonyl)phenyl)-1H-imidazo[4,5-c]pyridine]"
440,> 50000,2400,"Cc1nc(-c2ccc(N3CCC(N4CCCC4)CC3)c(F)c2)cc2c1nc(-c1ccc(S(C)(=O)=O)cc1)n2C [Example 42, 6-(3-fluoro-4-(4-(pyrrolidin-1-yl)piperidin-1-yl)phenyl)-1,4-dimethyl-2-(4-(methylsulfonyl)phenyl)-1H-imidazo[4,5-c]pyridine]"
1400,> 25000,> 25000,"CC(C)N1CCC(N2CCC(c3cc4c(cn3)nc(-c3ccc(S(C)(=O)=O)cc3)n4C)CC2)CC1 [Example 30, 6-(1′-isopropyl-[1,4′-bipiperidin]-4-yl)-1-methyl-2-(4-(methylsulfonyl)phenyl)-1H-imidazo[4,5-c]pyridine]"
120,> 50000,9100,"Cc1nc(C2CCN(C3CCN(CC(C)(C)O)CC3)CC2)cc2c1nc(-c1ccc(S(C)(=O)=O)cc1)n2C [Example 40, 1-(4-(1,4-dimethyl-2-(4-(methylsulfonyl)phenyl)-1H-imidazo[4,5-c]pyridin-6-yl)-[1,4′-bipiperidin]-1′-yl)-2-methylpropan-2-ol]"
130,> 50000,3500,"Cn1c(-c2ccc(S(C)(=O)=O)cc2)nc2c(C(F)(F)F)nc(C3CCN(C4CCN(CC(C)(C)O)CC4)CC3)cc21 [Example 34, 2-methyl-1-(4-(1-methyl-2-(4-(methylsulfonyl)phenyl)-4-(trifluoromethyl)-1H-imidazo[4,5-c]pyridin-6-yl)-[1,4′-bipiperidin]-1′-yl)propan-2-ol]"
340,12000,1800,"COc1ccc(-c2nc3cnc(-c4ccc(N5CCC6(CC5)CN(C(C)C)C6)cc4)cc3n2C2CC2)cc1OC [Example 83, 1-cyclopropyl-2-(3,4-dimethoxyphenyl)-6-(4-(2-isopropyl-2,7-diazaspiro[3.5]nonan-7-yl)phenyl)-1H-imidazo[4,5-c]pyridine]"
63,> 50000,2400,"Cc1nc(-c2ccc(N3CC4(CCN(CC(C)C)CC4)C3)cc2)cc2c1nc(-c1ccc(S(C)(=O)=O)cc1)n2C [Example 98, 6-(4-(7-isobutyl-2,7-diazaspiro[3.5]nonan-2-yl)phenyl)-1,4-dimethyl-2-(4-(methylsulfonyl)phenyl)-1H-imidazo[4,5-c]pyridine]"
